This is an account of results in US20240374769A1, “LIGHT ACTIVATED CLEANING COMPOSITION” (The Procter & Gamble Company, priority 2023, published 2024).

The structures appear in SMILES notation.

The nature of data set [1]: Riboflavin 5-phosphate sodium salt degradation under 450 nm LED with or without sodium ascorbate. It counts as physicochemical. Here is the method: Stock solutions of Riboflavin5-phosphate sodium salt were created by adding 2.2 mg of granulated Riboflavin 5-phosphate sodium salt Riboflavin 5-phosphate sodium salt into a 10 mL volumetric flask with a 95% H2O: 5% ethanol to give a concentration of 0.46 mM. Adding 1 mL of the stock solution to another 10 mL was used to create a 46 μM solution. Adding 0.5 mL to a 25 mL volumetric flask gives a concentration of 9 μM.
Stock solutions of sodium ascorbate were created by adding 9.1 mg of granulated sodium ascorbate into a 10 mL volumetric flask with a 95% H2O: 5% ethanol to give a concentration of 4.6 mM. Adding 0.1 mL of the stock solution to another 10 mL was used to create a 46 μM solution. Adding 0.05 mL to a 25 mL volumetric flask gives a concentration of −9 μM, which could be multiplied to give the number of equivalents needed for each study.
For some riboflavin decomposition experiments a home-built 450 nm LED was used to irradiate samples. The quartz cuvette was placed 11.5 cm away from the light source and the measured intensity was 1750 mW/m^2.
A JASCO V-750 spectrophotometer (from JASCO Easton, Maryland, USA) was used for recording UV-Vis spectra. Quartz cuvettes were used for sample irradiations as they have an optical window that allows for spectra to be collected as low as 200 nm. IgorPro8 software was used for plotting and processing the data.
Fractional RF Absorbance is the absorbance signal at 446 nm measured at an irradiation time divided by the absorbance signal at 446 nm at t=0. The concentration of RF was held constant at 46 μM, denoted by “1” and the concentration of sodium ascorbate (SA) was varied in multiples of 46 μM, denoted by “1”, “5”, “10”, “50” (i.e. 46 μM, 230 μM, 460 μM, and 2.3 mM).
To test the depletion of Riboflavin 5-phosphate sodium salt (RF) in presence of sodium ascorbate, experiments were run in triplicate using a 450 nm LED with a measured power of 1750 mW/m2. […]

The nature of data set [2]: Thioxanthone depletion in solution under 365 nm irradiation (UV-Vis). It counts as physicochemical. Here is the method:
Solutions of photosensitizer (9-10 μM, 1 eq), […] (9-50 μM, 1-5 eq) and singlet oxygen quenching molecules (1-1000 equivalents) were prepared in a 10 mL volumetric flask either. Solvents for these studies were either 95:5 DI H2O:Ethanol or pure ethanol. A starting UV-Vis spectrum was obtained as a baseline. Solutions were irradiated in a quartz cuvette using appropriate LED's at a measured distance to ensure reproducible results. Spectra were collected at intervals of 1 min, 5 min, 15 minutes, 30 minutes, and every 15 minutes until the […] was depleted. In cases where nitrosoaniline absorption signals were quenched faster, the spectra were collected as smaller intervals typically been 1-5 minutes.
Stock solutions of thioxanthone were created by adding […] of granulated thioxanthone into a 10 mL volumetric flask with pure ethanol to give a concentration of 2.3 mM. Adding 0.1 mL of the stock solution to another 10 mL was used to create a 23 μM solution. Adding 0.1 mL to a 25 mL volumetric flask gives a concentration of −9 μM.
Stock solutions of imidazole were created by adding […] of granulated imidazole into a 10 mL volumetric flask with a 95% H2O: 5% ethanol or pure ethanol to give a concentration of […]. […]
Some thioxanthone decomposition experiments were performed by using a home-built 365 nm LED. […] The light intensity was measured to be roughly 2000 mW/m^2 from each LED. […]

For data set [3] the following is noted: in methanol solutions; cited from earlier work.

Consider `Cc1cc2nc3c(=O)[nH]c(=O)nc-3n(C[C@H](O)[C@H](O)[C@H](O)COP(=O)([O-])O)c2cc1C.[Na+]` [Riboflavin 5-phosphate sodium salt], for which the “loss of absorbance signal at 446 nm” value in data set [1] (RF 46 μM by itself, 450 nm LED 1750 mW/m2, after 30 minutes of irradiation) was “roughly 50%”; in data set [1] (RF 46 μM with 5× sodium ascorbate (230 μM), 450 nm LED, in about 10 minutes), “roughly 50%”; in data set [1] (RF 46 μM with 10× sodium ascorbate (460 μM), 450 nm LED, in about 10 minutes), “roughly 50%”.

In the case of `O=c1c2ccccc2sc2ccccc12` [thioxanthone, reference compound], the depletion of thioxanthone entry in data set [2] (thioxanthone 23 μM in ethanol, 365 nm irradiation) is “complete after two hours of irradiation”. The triplet quantum yield in data set [3] is listed as 0.56.

`c1c[nH]cn1` [imidazole]: the “effect of added imidazole on rate of thioxanthone degradation” value in data set [2] (thioxanthone 23 μM, imidazole 23 μM to 230 μM, 365 nm) is given as “increases the rate of thioxanthone degradation”.
